Laboratory results published in patent US20210198647A1, “Enhancers of Neurolysin Activity” (Texas Tech University System, priority 2018, published 2021).
Marks after values point to notes of the source that are not given here. One block for each molecule: values may come before it. Peptide text beside a SMILES is read from it.

Key:
[1] = molecular target: T1, neprilysin (NEP) (Homo sapiens, UniProt P08473); assay: Peptidase selectivity: quenched fluorescent substrate hydrolysis by NEP; format: biochemical; conditions: 300 μM compound; read-out: inhibited activity of NEP by
T1 construct: purchased R & D systems 1182-ZNC

[2] = molecular target: thimet oligopeptidase (TOP) (Homo sapiens, UniProt P52888); assay: Peptidase selectivity: quenched fluorescent substrate hydrolysis by TOP
[3] = molecular target: T2, angiotensin converting enzyme 2 (ACE2) (Homo sapiens, UniProt Q9BYF1); assay: Peptidase selectivity: quenched fluorescent substrate hydrolysis by ACE2; format: biochemical
T2 construct: purchased R & D systems 933-ZN

[4] = molecular target: T3, human recombinant neurolysin (Homo sapiens, UniProt Q9BYT8); assay: Enzymatic assay: QFS hydrolysis by human recombinant neurolysin; format: biochemical
T3 construct: purchased R & D systems 3814-ZN

[5] = molecular target: T4, mouse brain neurolysin (Mus musculus, UniProt Q91YP2); assay: Enzymatic assay: QFS hydrolysis by mouse brain-purified neurolysin; format: biochemical
T4 construct: P10 mouse forebrains were used for purification of native neurolysin; from tissue; host or cells: P10 mouse forebrain, soluble fraction, size-exclusion fraction

[6] = molecular target: T5, angiotensin converting enzyme (ACE) (Homo sapiens, UniProt P12821); assay: Peptidase selectivity: quenched fluorescent substrate hydrolysis by ACE; format: biochemical
T5 construct: purchased R & D systems 929-ZN

[7] = molecular target: T6, rat recombinant neurolysin (Rattus norvegicus, UniProt P42676); assay: Enzymatic assay: QFS hydrolysis by rat recombinant neurolysin; format: biochemical; conditions: for Vmax: QFS hydrolysis; for % activity at 10: 10 μM compound; for % activity at 10 / % activity at (100): compared to vehicle control; for % activity at (100): 100 μM compound
T6 construct: polyhistidine (N); made in house; host or cells: Escherichia coli (pBAD/His vector)
Description: Rat recombinant neurolysin—N-terminal polyhistidine tagged recombinant rat neurolysin was produced in Escherichia coli using a plasmid construct in pBAD/His vector system (Invitrogen) kindly provided by Dr. David W. Rodgers (University of Kentucky) (32,33). Bacterial culture was carried out in Terrific Broth in 2 L Erlenmeyer flasks using an incubator shaker (1-2400, New Brunswick Scientific). Expression was induced by addition of arabinose (1 mM final concentration), the cells were pelleted 3 h after induction and stored at −80° C. freezer. Bacterial pellets were resuspended and lysed in phosphate buffer (20 mM NaH2PO4, 500 mM NaCl, 0.05% Tween-20, pH 8.0) containing 0.25 mg/ml lysozyme, 1 mM phenylmethylsulfonyl fluoride, 0.05 mg/ml DNAse and 0.02 mg/ml RNase, followed by brief sonication. After centrifugation (40,000×g, 20 min at 4° C.) the supernatant was applied to a Ni-NTA Superflow cartridge (Qiagen), followed by washing and elution of recombinant neurolysin with phosphate buffer containing 25 and 250 mM imidazole, respectively. The eluted protein was further purified by size exclusion chromatography using a TSK gel BioAssist G2SWxl column (Tosoh bioscience) in AKTA Purifier FPLC system (GE Healthcare). […] Specific activity of recombinant neurolysin was determined by an enzymatic assay described below.
All assays were initiated by addition of QFS (100 μl assay volume in 96-well plates), and each experimental sample was present in duplicate.
In all experiments, test compounds were incubated with neurolysin for 10 min at 37° C. before addition of the substrate to start the reaction. All test compounds were dissolved in DMSO at 10 to 50 mM stock concentrations.
Statistical Analyses—statistical analyses and curve fitting were conducted with GraphPad Prism 6.0 software. For each enzymatic reaction, slope of the line which represents the initial velocity (Vo) for the reaction progress curve was calculated using the liner regression model of the software (Vo=Slope=Δ fluorescent intensity of the reaction product/Δ time). EC50 values for the modulators were calculated by fitting initial velocity values for hydrolysis of QFS by neurolysin in the presence of varying concentrations of a modulator into a nonlinear regression model for the three-parameter log(stimulator) vs. response equation [Y=Bottom+(Top−Bottom)/(1+10^((Log EC50−X)))].

[8] = in vitro; conditions: mouse, plasma
[9] = Plasma and brain protein binding, rapid equilibrium dialysis (RED); format: in vitro ADME, mouse; conditions: mouse plasma; 500 ng/mL
Description: Plasma and Brain Protein Binding: The rapid equilibrium dialysis (RED) plate and single-use inserts with a membrane MWCO of 8 kDa and sealing tapes for 96-well plates were purchased from (Pierce Biotechnology, Thermo Fisher Scientific, Waltham, Mass.). Test compounds were dissolved in dimethyl sulfoxide and then diluted to 10 μg/mL with water for binding studies. The stock solutions (10 μg/mL) were added to mouse brain homogenates or plasma. The final concentration of the compounds for the equilibrium dialysis experiment was 500 ng/mL. The RED device was assembled according to the manufacturer's instructions. A 200 μL aliquot of plasma or brain homogenate spiked with 500 ng/mL of selected compound was added to the sample chamber of insert (donor) and 400 μL of DPBS was added to the buffer chamber of the dialysis membrane (receiver). Then, the base plate was covered with a sealing tape and was incubated at 37° C. on an orbital shaker at 250 rpm for 4 hours to achieve equilibrium. Compounds were evaluated in triplicate for each experiment. At the end of incubation, equal volumes from both donor and receiver chambers were taken and placed in separate microcentrifuge for content analysis using LC-MS/MS.

[10] = molecular target: T7, Neurolysin (Nln) (Rattus norvegicus, UniProt P42676); assay: Nln activation in isolated enzyme assay (A50, Amax); format: biochemical; conditions: 95% CI in parentheses; for Amax (maximum % activation achieved): 100% = normal enzyme turnover
T7 construct: polyhistidine (N); made in house; host or cells: Escherichia coli (pBAD/His vector), if the rat enzyme of b61 was used

[11] = test system: co-culture of primary mouse astrocytes and immortalized mouse endothelial cells (bEnd3); assay: In vitro BBB permeability, apical to basolateral transport; format: in vitro ADME; conditions: 10 μg/mL, 37° C.
Description: The permeability coefficient (Pe) was calculated from the cleared volume of each compound versus time. Values represent the mean±SD of three measurements.
Mouse primary astrocytes were isolated from the cerebral cortices of one day old pups (CD-1 mice, Charles Rivers Laboratory) following a literature method.^36 After extracting the brain, cortices were separated, minced and placed in Hank's balanced salt solution (HBSS) without calcium and magnesium, supplemented with gentamycin (10 μg/m). […] The cell suspensions were seeded into a T75 flask and the medium was changed every 3 days for 10-14 days or until reaching confluency.
For bEnd3 and astrocyte co-culture, the Transwell filters ([…] pore size, 12-well; Corning, Lowell, Mass.) were used. First, the Transwell filter was inverted and astrocytes at a density of 150,000 cells/filter were seeded onto the abluminal side of the filter and allowed to adhere for 4 hours. Then the Transwell filter was inverted back and the cells were grown for 2 days in astrocyte medium. At the end of 48 hours, bEnd3 cells at a density of 50,000 cells/filter were seeded onto the upper/luminal side of the filter and the co-culture of astrocytes and bEnd3 cells were grown for an additional 8 days. The medium for both compartments were changed every other day according to literature proceedures.^37
The apparent permeability coefficient (Pe, in cm/min) was calculated according to the cleared volume of each time point, as previously described.^38,39
Permeability measurement for each compound was run for 120 minutes. The media was removed and transwells were rinsed and incubated with HBSS buffer at 37° C. for 30 minutes. […] Concentration of compounds was determined by LC-MS/MS. Since the blank Transwell insert itself (without cells) provides resistance to the passage of buffer and compound from the donor to receiver chamber, the permeability of each compound was also measured in a blank insert and the final permeability coefficient results were calculated by considering the permeability of each compound in a blank insert.

[12] = concentration-response up to 300 μM

T7 sequence (P42676 38-704): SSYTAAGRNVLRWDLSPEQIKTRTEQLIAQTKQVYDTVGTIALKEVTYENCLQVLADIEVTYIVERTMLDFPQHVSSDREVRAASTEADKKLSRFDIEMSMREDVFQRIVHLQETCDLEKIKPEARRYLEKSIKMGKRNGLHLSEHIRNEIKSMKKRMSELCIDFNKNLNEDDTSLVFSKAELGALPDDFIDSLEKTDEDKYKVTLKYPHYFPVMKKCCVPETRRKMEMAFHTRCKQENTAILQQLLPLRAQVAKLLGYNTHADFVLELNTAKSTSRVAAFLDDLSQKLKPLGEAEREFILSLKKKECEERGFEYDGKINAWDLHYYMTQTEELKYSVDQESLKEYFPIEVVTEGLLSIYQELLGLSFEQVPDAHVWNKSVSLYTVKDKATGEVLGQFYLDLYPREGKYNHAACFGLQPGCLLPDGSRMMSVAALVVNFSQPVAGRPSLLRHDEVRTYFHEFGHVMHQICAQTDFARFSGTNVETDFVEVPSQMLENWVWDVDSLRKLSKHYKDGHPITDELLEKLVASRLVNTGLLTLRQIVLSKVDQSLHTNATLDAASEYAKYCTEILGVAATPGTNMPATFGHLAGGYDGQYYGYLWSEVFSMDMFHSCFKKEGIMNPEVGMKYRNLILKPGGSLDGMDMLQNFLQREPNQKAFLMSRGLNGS
T6 sequence (P42676 38-704): as above
T2 sequence (Q9BYF1 18-805): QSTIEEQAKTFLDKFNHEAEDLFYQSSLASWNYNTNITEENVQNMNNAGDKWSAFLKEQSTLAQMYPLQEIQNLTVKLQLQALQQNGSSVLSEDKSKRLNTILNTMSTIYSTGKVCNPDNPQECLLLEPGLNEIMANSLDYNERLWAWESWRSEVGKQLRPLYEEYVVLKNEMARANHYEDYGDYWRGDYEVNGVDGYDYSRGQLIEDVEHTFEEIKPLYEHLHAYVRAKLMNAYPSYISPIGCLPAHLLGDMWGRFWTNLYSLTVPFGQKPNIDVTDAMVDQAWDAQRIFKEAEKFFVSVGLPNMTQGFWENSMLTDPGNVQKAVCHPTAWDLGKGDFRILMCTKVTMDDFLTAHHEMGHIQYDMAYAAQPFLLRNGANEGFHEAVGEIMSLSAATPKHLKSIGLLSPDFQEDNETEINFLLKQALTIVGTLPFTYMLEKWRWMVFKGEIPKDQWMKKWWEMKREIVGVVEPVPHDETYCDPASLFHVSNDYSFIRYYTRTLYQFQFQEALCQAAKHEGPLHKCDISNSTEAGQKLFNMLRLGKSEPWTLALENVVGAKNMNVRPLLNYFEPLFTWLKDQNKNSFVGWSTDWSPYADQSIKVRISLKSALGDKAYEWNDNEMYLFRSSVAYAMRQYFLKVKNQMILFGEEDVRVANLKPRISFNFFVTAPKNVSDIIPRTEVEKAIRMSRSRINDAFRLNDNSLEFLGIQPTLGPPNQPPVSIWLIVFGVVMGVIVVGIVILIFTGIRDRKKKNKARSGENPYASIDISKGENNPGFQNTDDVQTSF
T5 sequence (P12821 30-1306): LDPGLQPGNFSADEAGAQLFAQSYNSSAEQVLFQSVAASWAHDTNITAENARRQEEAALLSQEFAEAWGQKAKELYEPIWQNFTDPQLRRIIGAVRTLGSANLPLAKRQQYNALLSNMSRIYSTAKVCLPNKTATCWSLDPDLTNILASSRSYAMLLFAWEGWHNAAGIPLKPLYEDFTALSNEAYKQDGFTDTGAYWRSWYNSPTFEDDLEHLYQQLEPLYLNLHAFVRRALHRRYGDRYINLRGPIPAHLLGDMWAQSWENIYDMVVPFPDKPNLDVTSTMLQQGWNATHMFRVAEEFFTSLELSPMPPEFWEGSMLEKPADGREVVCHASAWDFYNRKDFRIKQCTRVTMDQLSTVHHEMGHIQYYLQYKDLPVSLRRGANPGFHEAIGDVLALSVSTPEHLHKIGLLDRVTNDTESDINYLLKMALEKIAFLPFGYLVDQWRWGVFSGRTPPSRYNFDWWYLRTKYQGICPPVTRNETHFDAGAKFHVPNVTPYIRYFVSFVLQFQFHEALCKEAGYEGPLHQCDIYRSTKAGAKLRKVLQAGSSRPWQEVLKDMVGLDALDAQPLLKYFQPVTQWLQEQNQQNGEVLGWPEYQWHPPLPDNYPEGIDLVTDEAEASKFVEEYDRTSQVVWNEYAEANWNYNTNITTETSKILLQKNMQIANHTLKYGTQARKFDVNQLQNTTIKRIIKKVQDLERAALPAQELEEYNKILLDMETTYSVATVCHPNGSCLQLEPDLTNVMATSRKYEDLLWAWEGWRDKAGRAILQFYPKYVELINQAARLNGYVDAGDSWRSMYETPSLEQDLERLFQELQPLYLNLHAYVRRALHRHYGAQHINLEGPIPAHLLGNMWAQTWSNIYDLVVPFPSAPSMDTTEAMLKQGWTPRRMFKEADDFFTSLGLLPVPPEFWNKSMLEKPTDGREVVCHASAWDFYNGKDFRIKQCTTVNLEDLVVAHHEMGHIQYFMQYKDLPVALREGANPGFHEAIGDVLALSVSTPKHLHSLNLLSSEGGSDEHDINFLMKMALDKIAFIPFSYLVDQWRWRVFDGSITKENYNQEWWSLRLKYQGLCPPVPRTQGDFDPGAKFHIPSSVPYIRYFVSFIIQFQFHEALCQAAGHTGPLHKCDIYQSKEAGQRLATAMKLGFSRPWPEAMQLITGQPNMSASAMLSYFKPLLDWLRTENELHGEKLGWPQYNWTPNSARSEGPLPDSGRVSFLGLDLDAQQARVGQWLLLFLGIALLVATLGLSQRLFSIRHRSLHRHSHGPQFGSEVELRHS
thimet oligopeptidase (TOP), sequence (P52888 whole entry): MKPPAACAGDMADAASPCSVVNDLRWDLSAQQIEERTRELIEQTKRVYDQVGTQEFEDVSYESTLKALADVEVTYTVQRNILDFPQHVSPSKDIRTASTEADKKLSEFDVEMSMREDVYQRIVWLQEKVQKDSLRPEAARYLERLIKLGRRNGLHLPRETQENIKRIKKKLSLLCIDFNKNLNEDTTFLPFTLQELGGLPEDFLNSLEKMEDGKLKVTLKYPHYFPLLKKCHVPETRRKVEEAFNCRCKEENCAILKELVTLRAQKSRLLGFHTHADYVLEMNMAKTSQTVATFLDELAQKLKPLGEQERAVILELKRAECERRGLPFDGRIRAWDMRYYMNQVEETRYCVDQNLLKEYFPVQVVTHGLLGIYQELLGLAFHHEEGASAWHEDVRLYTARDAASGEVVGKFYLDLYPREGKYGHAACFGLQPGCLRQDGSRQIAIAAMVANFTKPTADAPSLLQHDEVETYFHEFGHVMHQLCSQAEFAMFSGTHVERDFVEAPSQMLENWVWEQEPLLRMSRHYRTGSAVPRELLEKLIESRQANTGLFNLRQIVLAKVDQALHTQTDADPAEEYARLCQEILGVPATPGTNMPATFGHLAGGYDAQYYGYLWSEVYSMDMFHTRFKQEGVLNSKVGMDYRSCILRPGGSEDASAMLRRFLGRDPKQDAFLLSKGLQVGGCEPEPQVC
T1 sequence (P08473 whole entry): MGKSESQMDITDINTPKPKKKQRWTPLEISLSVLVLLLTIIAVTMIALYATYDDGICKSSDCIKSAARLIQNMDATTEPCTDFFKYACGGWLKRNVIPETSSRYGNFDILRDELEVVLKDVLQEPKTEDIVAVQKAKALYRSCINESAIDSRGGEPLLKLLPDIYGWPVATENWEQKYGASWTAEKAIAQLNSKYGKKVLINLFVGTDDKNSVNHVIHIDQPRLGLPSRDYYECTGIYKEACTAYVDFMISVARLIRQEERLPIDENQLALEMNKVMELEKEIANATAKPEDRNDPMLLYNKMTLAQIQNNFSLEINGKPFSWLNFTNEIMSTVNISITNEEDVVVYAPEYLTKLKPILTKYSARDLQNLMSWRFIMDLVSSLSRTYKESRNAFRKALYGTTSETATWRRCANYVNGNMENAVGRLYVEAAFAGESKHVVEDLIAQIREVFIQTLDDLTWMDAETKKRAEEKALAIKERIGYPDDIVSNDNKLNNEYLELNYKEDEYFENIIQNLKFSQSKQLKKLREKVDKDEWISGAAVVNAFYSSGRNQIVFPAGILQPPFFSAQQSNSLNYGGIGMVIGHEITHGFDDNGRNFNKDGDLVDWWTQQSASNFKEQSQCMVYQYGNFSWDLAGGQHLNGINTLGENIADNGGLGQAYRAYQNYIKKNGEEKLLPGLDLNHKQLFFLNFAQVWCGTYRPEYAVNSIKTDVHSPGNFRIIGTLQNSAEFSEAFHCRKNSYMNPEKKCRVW

Structure (SMILES): NC(Cc1c[nH]cn1)C(=O)NC(Cc1c[nH]cn1)C(=O)O (mixture of isomers) [NlnA#2, D,L-histidyl-D,L-histidine]
inhibition at 300 µM [1]: 1.6 ± 2% | inhibition at 300 µM ([2]; read-out: inhibited activity of TOP by): 15.6 ± 2.6% | inhibition at 300 µM ([3]; 300 μM compound, read-out: inhibited activity of ACE2 by): 10.9 ± 2.9% | Emax [4]: 214% | Emax [5]: 258% | inhibition at 300 µM ([6]; 300 μM compound, read-out: inhibited activity of ACE by): 12.2 ± 1.8% | Km value decreased by ([7]; 40 μM modulator): ~42.4% | Vmax increased by ([7]; 40 μM modulator): ~16.5% | Emax ([7]; QFS 15 μM, absence of dynorphin A (1-13)): 255% | Emax ([7]; QFS 15 μM, presence of dynorphin A (1-13) 1 μM): 198% | Emax ([7]; QFS 25 μM, neurolysin 0.3 nM, 100% = no compound): 203% | Vmax ([7]; rNln + 40 μM modulator): 112.5* FLU/ng protein per min | Vmax ([7]; rNln + 100 μM modulator): 148.2*** FLU/ng protein per min | activity at 10 µM ([7]; read-out: % activity at 10): 122% | activity at 100 µM ([7]; read-out: % activity at (100)): 206%

half-life at 500 ng/mL [8]: > 5 h | fu in Plasma [9]: 0.93 ± 0.13
Structure (SMILES): N[C@@H](Cc1c[nH]cn1)C(=O)N[C@@H](Cc1c[nH]c2ccccc12)C(=O)O [Compound 4, Histidine-tryptophan]

EC50 ([10]; read-out: A50 (concentration required to activate Nln by 50%)): 4.4 µM | Amax (maximum % activation achieved) [10]: 210.9 (191.7 to 231.9) % | effect on activity of TOP (in words) [2, 12]: No appreciable inhibition
Structure (SMILES): N[C@@H](Cc1c[nH]cn1)C(=O)NCc1ccc2ccccc2c1 [Compound 10a, (S)-2-amino-3-(1H-imidazol-4-yl)-N-(naphthalen-2-ylmethyl)propanamide]

Structure (SMILES): N[C@@H](Cc1c[nH]cn1)C(=O)Nc1cccc2cccnc12 [Compound 11a, (S)-2-amino-3-(1H-imidazol-4-yl)-N-(quinolin-8-yl)propanamide]
Amax (maximum % activation achieved) [10]: 252.4 (231.4 to 274.9) % | permeability coefficient (Pe) [11]: 1.14±0.02×10^−3 cm/min | effect on activity of ACE2 (in words) [3, 12]: showed inhibition of ACE2 at high concentrations | effect on activity of ACE (in words) [6, 12]: show inhibition of ACE at high concentration

Structure (SMILES): CC(C)CC(NC(=O)C(N)CC(=O)O)C(=O)O (stereo not drawn) [Compound 332636] (H-Asp-Leu-OH; configuration not given here)
% activity at 10 ([7]; QFS 25 μM): 103% | % activity at (100) ([7]; QFS 25 μM): 64%

Structure (SMILES): CC(C)CC(NC(=O)C(C)N)C(=O)NCC(=O)O (centres unmarked) [Compound 333568]
% activity at 10 ([7]; QFS 25 μM): 106% | % activity at (100) ([7]; QFS 25 μM): 77%

Structure (SMILES): Cl.NC(=O)C(Cc1ccc(O)cc1)NC(=O)C(N)Cc1c[nH]c2ccccc12 (stereo not drawn) [Compound 339919] (H-Trp-Tyr-NH2; configuration not given here)
% activity at 10 ([7]; QFS 25 μM): 100% | % activity at (100) ([7]; QFS 25 μM): 63%

Structure (SMILES): CC(C)C(N)C(=O)NC(C(=O)NS(=O)(=O)c1ccc(N)cc1)C(C)C (centres unmarked) [Compound 340049]
% activity at 10 ([7]; QFS 25 μM): 94% | % activity at (100) ([7]; QFS 25 μM): 52%
